ChEMBL document CHEMBL4229536, “In vitro and in vivo pharmacokinetic and pharmacodynamic study of MBRI-001, a deuterium-substituted plinabulin derivative as a potent anti-cancer agent” (Bioorg Med Chem, 2018)

Tests used:
[1] = Drug uptake in Wistar rat small intestine at 6 mg/kg, iv measured after 1 hr; assay type: ADME, organism-based; settings: in vivo
[2] = Stability in rat plasma at 1 uM after 120 mins by LC-MS/MS analysis; assay type: ADME, cell-free; settings: read-out: Stability
[3] = Drug uptake in Wistar rat liver at 6 mg/kg, iv measured after 1 hr; assay type: ADME, organism-based; settings: in vivo
[4] = Cmax in Wistar rat at 4 mg/kg, iv; assay type: ADME, organism-based; design: dose 4 mg/kg, route intravenous; settings: in vivo
[5] = Stability in rat liver microsomes at 50 uM after 270 mins in presence of NADPH by LC-MS/MS analysis; assay type: ADME, microsome; settings: 4.5 h
[6] = Drug uptake in Wistar rat small intestine at 6 mg/kg, iv measured after 8 hrs; assay type: ADME, organism-based; settings: in vivo
[7] = test system: Mus musculus; experiment: Toxicity in nude mouse xenografted with human NCI-H460 cells assessed as body weight at 6 mg/kg, iv administered once in every 2 days for 14 consecutive days cotreated with 50 mg/kg gefitinib once daily for 14 consecutive days (reference value: 20.6 +/- 1.5 g); assay type: organism-based; settings: in vivo, 48 h
[8] = test system: Mus musculus; experiment: Toxicity in Balb/c mouse assessed as mortality at 10 to 15 mg/kg, iv administered three times in a day every 2 days for 15 consecutive days; assay type: organism-based; settings: in vivo, 48 h
[9] = Stability in rat plasma at 1 uM after 40 mins by LC-MS/MS analysis; assay type: ADME, cell-free; settings: read-out: Stability
[10] = test system: Rattus norvegicus; experiment: AUC (0 to infinity) in Wistar rat at 8 mg/kg, iv; assay type: ADME, organism-based; design: dose 8 mg/kg, route intravenous, time infinity; settings: in vivo
[11] = Half life in Wistar rat at 8 mg/kg, iv; assay type: ADME, organism-based; settings: in vivo
[12] = Drug excretion in Wistar rat feces at 4 mg/kg, iv measured after 12 hrs; assay type: ADME, organism-based; settings: faeces, read-out: Drug excretion
[13] = Drug uptake in Wistar rat pancreas at 6 mg/kg, iv measured after 1 hr; assay type: ADME, organism-based; settings: in vivo
[14] = Drug uptake in Wistar rat large intestine at 6 mg/kg, iv measured after 4 hrs; assay type: ADME, organism-based; settings: in vivo
[15] = test system: Mus musculus; experiment: Toxicity in nude mouse xenografted with human NCI-H460 cells assessed as body weight at 9 mg/kg, iv administered once in every 2 days for 14 consecutive days (reference value: 20.6 +/- 1.5 g); assay type: organism-based; settings: in vivo, 48 h
[16] = Clearance in Wistar rat at 4 mg/kg, iv; assay type: ADME, organism-based; settings: in vivo
[17] = Drug excretion in Wistar rat feces at 4 mg/kg, iv measured after 48 hrs; assay type: ADME, organism-based; settings: faeces, read-out: Drug excretion
[18] = test system: Mus musculus; experiment: Toxicity in nude mouse xenografted with human NCI-H460 cells assessed as body weight at 3 mg/kg, iv administered once in every 2 days for 14 consecutive days cotreated with 25 mg/kg gefitinib once daily for 14 consecutive days (reference value: 20.6 +/- 1.5 g); assay type: organism-based; settings: in vivo, 48 h
[19] = Half life in rat liver microsomes at 50 uM in presence of NADPH by LC-MS/MS analysis; assay type: ADME, microsome
[20] = Drug uptake in Wistar rat lungs at 6 mg/kg, iv measured after 4 hrs; assay type: ADME, organism-based, Lung; settings: in vivo
[21] = Drug uptake in Wistar rat heart at 6 mg/kg, iv measured after 12 hrs; assay type: ADME, organism-based; settings: in vivo
[22] = test system: NCI-H460; experiment: Antitumor activity against human NCI-H460 cells xenografted in nude mouse assessed as inhibition of tumor weight at 3 mg/kg, iv administered once in every 2 days for 14 consecutive days cotreated with 25 mg/kg gefitinib once daily for 14 consecutive days relative to control; assay type: functional
[23] = Toxicity in Balb/c mouse administered iv three times in a day every 2 days for 15 consecutive days; assay type: organism-based; settings: in vivo
[24] = AUC (0 to infinity) in Wistar rat at 4 mg/kg, iv; assay type: ADME, organism-based; design: dose 4 mg/kg, time infinity, route intravenous; settings: in vivo
[25] = test system: Mus musculus; experiment: Toxicity in Balb/c mouse assessed as decrease in body weight at 10 to 15 mg/kg, iv administered three times in a day every 2 days for 15 consecutive days; assay type: organism-based; settings: in vivo, 48 h
[26] = Stability in rat liver microsomes at 50 uM after 210 mins in presence of NADPH by LC-MS/MS analysis; assay type: ADME, microsome; settings: liver microsomes, read-out: Stability
[27] = test system: NCI-H460; experiment: Antitumor activity against human NCI-H460 cells xenografted in nude mouse assessed as inhibition of tumor weight at 6 mg/kg, iv administered once in every 2 days for 14 consecutive days cotreated with 50 mg/kg gefitinib once daily for 14 consecutive days relative to control; assay type: functional
[28] = AUClast in Wistar rat at 8 mg/kg, iv; assay type: ADME, organism-based; design: dose 8 mg/kg, time 0 - last, route intravenous; settings: in vivo
[29] = Drug uptake in Wistar rat lungs at 6 mg/kg, iv measured after 1 hr; assay type: ADME, organism-based, Lung; settings: in vivo
[30] = Drug uptake in Wistar rat heart at 6 mg/kg, iv measured after 1 hr; assay type: ADME, organism-based; settings: in vivo
[31] = Drug uptake in Wistar rat small intestine at 6 mg/kg, iv measured after 0.5 hrs; assay type: ADME, organism-based; settings: in vivo
[32] = Stability in rat liver microsomes at 50 uM after 40 mins in presence of NADPH by LC-MS/MS analysis; assay type: ADME, microsome; settings: read-out: Stability
[33] = Drug uptake in Wistar rat brain at 6 mg/kg, iv measured after 1 hr; assay type: ADME, organism-based; settings: in vivo
[34] = Drug uptake in Wistar rat brain at 6 mg/kg, iv measured after 4 hrs; assay type: ADME, organism-based; settings: in vivo
[35] = Drug uptake in Wistar rat kidney at 6 mg/kg, iv measured after 0.5 hrs; assay type: ADME, organism-based; settings: in vivo
[36] = Drug uptake in Wistar rat lungs at 6 mg/kg, iv measured after 12 hrs; assay type: ADME, organism-based, Lung; settings: in vivo
[37] = Cmax in Wistar rat at 8 mg/kg, iv; assay type: ADME, organism-based; design: dose 8 mg/kg, route intravenous; settings: in vivo
[38] = test system: Mus musculus; experiment: Toxicity in nude mouse xenografted with human NCI-H460 cells assessed as death at 3 to 6 mg/kg, iv administered once in every 2 days for 14 consecutive days cotreated with 25 to 50 mg/kg gefitinib once daily for 14 consecutive days; assay type: organism-based; settings: in vivo, 48 h
[39] = Drug uptake in Wistar rat kidney at 6 mg/kg, iv measured after 12 hrs; assay type: ADME, organism-based; settings: in vivo
[40] = test system: NCI-H460; experiment: Antitumor activity against human NCI-H460 cells xenografted in nude mouse assessed as inhibition of tumor volume at 6 mg/kg, iv administered once in every 2 days for 14 consecutive days relative to control; assay type: functional; settings: 48 h
[41] = Drug uptake in Wistar rat heart at 6 mg/kg, iv measured after 0.5 hrs; assay type: ADME, organism-based; settings: in vivo
[42] = test system: Mus musculus; experiment: Toxicity in nude mouse xenografted with human NCI-H460 cells assessed as body weight at 3 mg/kg, iv administered once in every 2 days for 14 consecutive days (reference value: 20.6 +/- 1.5 g); assay type: organism-based; settings: in vivo, 48 h
[43] = Stability in rat liver microsomes at 50 uM after 10 mins in presence of NADPH by LC-MS/MS analysis; assay type: ADME, microsome; settings: liver microsomes, read-out: Stability
[44] = Stability in rat liver microsomes at 50 uM after 60 mins in presence of NADPH by LC-MS/MS analysis; assay type: ADME, microsome; settings: read-out: Stability
[45] = Drug uptake in Wistar rat liver at 6 mg/kg, iv measured after 12 hrs; assay type: ADME, organism-based; settings: in vivo
[46] = Drug excretion in Wistar rat urine at 4 mg/kg, iv measured after 12 hrs; assay type: ADME, organism-based; settings: read-out: Drug excretion
[47] = Drug excretion in Wistar rat urine at 4 mg/kg, iv measured after 36 hrs; assay type: ADME, organism-based; settings: read-out: Drug excretion
[48] = Drug uptake in Wistar rat kidney at 6 mg/kg, iv measured after 4 hrs; assay type: ADME, organism-based; settings: in vivo
[49] = Drug uptake in Wistar rat large intestine at 6 mg/kg, iv measured after 1 hr; assay type: ADME, organism-based; settings: in vivo
[50] = MRTlast in Wistar rat at 8 mg/kg, iv; assay type: ADME, organism-based; settings: in vivo

In the case of [2H]/C(c1nc[nH]c1C(C)(C)C)=c1/[nH]c(=O)/c(=C/c2ccccc2)[nH]c1=O, the Drug uptake [1] is reported as 1128.6 ng/mL/g, the remaining at 2 h, 1 µM [2] is reported as 101% and the Drug uptake [3] is reported as 8791.2 ng/mL/g. For the same molecule, the Cmax [4] was 4420 ng/mL, the Stability [5] was 35.33% and the Drug uptake [6] was 160 ng/mL/g. The Activity [7] was 18.5 g, the Activity [8] was “Non-Toxic” and the remaining at 40 min, 1 µM [9] was 95.5%. It also gave an AUC [10] of 5808.24 ng·h/mL, a half-life [11] of 2.29 h and a dose excreted at 12 h [12] of 0.12%. The Drug uptake [13] was 4538.9 ng/mL/g, the Drug uptake [14] was 359 ng/mL/g and the Activity [15] was 19.9 g. The clearance [16] was 71.4 mL/min/kg, the dose excreted at 48 h [17] was 6.1% and the Activity [18] was 19.8 g. It also gave a t1/2 [19] of 1.415 h, a Drug uptake [20] of 49038.9 ng/mL/g and a Drug uptake [21] of 54.7 ng/mL/g. For the same molecule, the “inhibition (INH)” value [22] was 53.3%, the MTD at 48 h [23] was 15 mg/kg and the AUC(0-inf) [24] was 1330 ng·h/mL. For the same molecule, the Activity [25] was “Non-Toxic”, the remaining at 3.5 h, 50 µM [26] was 31.5% and the “inhibition (INH)” value [27] was 60.5%. For the same molecule, the AUC(0-t) [28] was 5780 ng·h/mL, the Drug uptake [29] was 158342.2 ng/mL/g and the Drug uptake [30] was 3836.3 ng/mL/g. It also gave a Drug uptake [31] of 1799.2 ng/mL/g, a remaining at 40 min, 50 µM [32] of 56.5% and a Drug uptake [33] of 561 ng/mL/g. For the same molecule, the Drug uptake [34] was 166.5 ng/mL/g, the Drug uptake [35] was 7423.8 ng/mL/g and the Drug uptake [36] was 2023.8 ng/mL/g. For the same molecule, the Cmax [37] was 20100 ng/mL, the Activity [38] was “Non-Toxic” and the Drug uptake [39] was 175.1 ng/mL/g. It also gave an inhibition in vivo at 6 mg/kg [40] of 56.9%, a Drug uptake [41] of 2189.8 ng/mL/g and an Activity [42] of 20.5 g. The remaining at 10 min, 50 µM [43] was 80.6%, the remaining at 1 h, 50 µM [44] was 47.1% and the Drug uptake [45] was 431.7 ng/mL/g. It also gave a dose excreted at 12 h [46] of 0.14%, a dose excreted at 36 h [47] of 0.23% and a Drug uptake [48] of 3570.8 ng/mL/g. It also gave a Drug uptake [49] of 1421.7 ng/mL/g and an MRT last [50] of 0.96 h.
